Values belong to the molecule of their own block, whether it stands above or below them. No end group written: not given here. *: point of attachment. Biotin = O=C1N[C@H]2[C@H](CS[C@H]2CCCCC(=O)*)N1
How the values were obtained:
[1] = biological target: T1, GST-PDK1_1-556 (Homo sapiens, UniProt O15530); assay: AlphaScreen GST-PDK1_1-556 / biotin-PIFtide interaction; format: binding
T1 construct: made in house; host or cells: HEK293 cells (transient transfection of pEBG2T); peptide synthesized by Pepscan
T1 sequence (O15530 1-556): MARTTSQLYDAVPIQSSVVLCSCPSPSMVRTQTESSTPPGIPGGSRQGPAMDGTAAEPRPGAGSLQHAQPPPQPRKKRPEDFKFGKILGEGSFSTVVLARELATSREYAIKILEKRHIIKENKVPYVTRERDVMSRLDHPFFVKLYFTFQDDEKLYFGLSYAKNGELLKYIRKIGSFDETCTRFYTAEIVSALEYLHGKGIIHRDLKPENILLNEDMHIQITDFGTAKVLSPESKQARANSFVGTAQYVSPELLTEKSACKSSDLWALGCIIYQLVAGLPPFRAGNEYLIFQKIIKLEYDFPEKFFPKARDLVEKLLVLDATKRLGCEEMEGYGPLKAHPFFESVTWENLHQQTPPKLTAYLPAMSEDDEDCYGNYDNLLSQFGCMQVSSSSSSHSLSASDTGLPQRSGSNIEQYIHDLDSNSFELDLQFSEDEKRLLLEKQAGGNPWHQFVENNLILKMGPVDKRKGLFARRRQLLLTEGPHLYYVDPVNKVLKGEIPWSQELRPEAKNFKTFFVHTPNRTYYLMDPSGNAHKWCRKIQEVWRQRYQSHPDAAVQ
Description: (§1) The AlphaScreen® assay was performed following the general guidelines from the manufacturer (Perkin Elmer) ([29]). In short, the assay was performed in a final volume of 25 μl in white 384-well microtiter plates (Greiner) in a standard buffer containing 50 mM Tris-HCl (pH 7.4), 100 mM NaCl, 2 mM DTT, 0.01% (v/v) Tween-20 and 0.1% (w/v) BSA, with the addition of 5 μl of beads (anti-GST coated acceptor beads and streptavidin-coated donor beads; nickel chelate-coated acceptor beads and streptavidin-coated donor beads; or nickel chelate-coated acceptor beads and GSH-coated donor beads, 20 μg/ml final concentrations for each bead type). AlphaScreen assays for His-tagged proteins and GST-fusion proteins were performed using nickel chelate-coated acceptor beads and GSH-coated donor beads; alphascreen assays for His-tagged proteins and biotinylated molecules were performed using nickel chelate-coated acceptor beads and streptavidin-coated donor beads; alphascreen assays for GST-fusion proteins and biotinylated molecules were performed using anti-GST coated acceptor beads and streptavidin-coated donor beads (Perkin Elmer).
The interaction between GST-PDK1_1-556 and biotin-PIFtide was performed as described previously ([29], [32]) in the standard buffer, but the bead concentration was lowered to 15 μg/ml.

[2] = biological target: T2, PDK1_50-359 (Homo sapiens, UniProt O15530); assay: Differential scanning fluorimetry, thermal stability of PDK1_50-359 (catalytic domain); format: binding
T2 construct: His (N); made in house; host or cells: insect cells (stated for the crystallography batch)
T2 sequence (O15530 50-359): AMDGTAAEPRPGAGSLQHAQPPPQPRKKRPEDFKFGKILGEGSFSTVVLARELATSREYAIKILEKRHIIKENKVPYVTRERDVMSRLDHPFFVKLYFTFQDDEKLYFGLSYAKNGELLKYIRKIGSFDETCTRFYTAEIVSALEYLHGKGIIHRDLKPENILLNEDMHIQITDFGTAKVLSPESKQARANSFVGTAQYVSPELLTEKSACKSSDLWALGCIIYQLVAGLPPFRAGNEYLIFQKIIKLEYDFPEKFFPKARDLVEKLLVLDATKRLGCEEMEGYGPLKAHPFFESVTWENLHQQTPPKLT
Description: (§2) The thermal stability of PDK1 was assessed by monitoring the unfolding of PDK1 by the increase in the fluorescence of SYPRO Orange (Invitrogen) using a real-time PCR device (StepOnePlus, Applied Biosystems and BioRad CFX96) following a previously described protocol ([70]). The reactions were performed in a final volume of 10 μl in white 96-well PCR microtiter plates (Greiner) and contained 1 μM PDK1, 10 mM HEPES (pH 7.5), 150 mM NaCl, 1/1000 SYPRO Orange and 1 mM dithiothreitol. For valsartan, the assay buffer was modified to exclude NaCl. PIFtide or compounds (at a final DMSO concentration of 1%) were added to this reaction mixture. The temperature gradient was performed in steps of 0.3 °C in the range from 25 to 70 °C. To calculate the Tm values, data were exported to GraphPad Prism and curves fitted to a Boltzmann sigmoidal equation with an acceptable confidence interval of 95%. Statistical analysis was performed with Infostat software (http://www.infostat.com.ar) and GraphPad Prism by first verifying a normal distribution of pooled residuals (Shapiro-Wilks test) and homogeneity of variance (F test), and then performing a one-way ANOVA followed by the post hoc comparisons test indicated in each figure legend.

[3] = biological target: T3, PDK1_1-556 (Homo sapiens, UniProt O15530); assay: Differential scanning fluorimetry, thermal stability of PDK1_1-556; format: binding
T3 construct: effect of HYG8 on the thermal stability (ΔTm) of PDK1_1-556 (H) and PDK1_50-359 (I); His (N); made in house; host or cells: Sf9 insect cells (baculovirus)
T3 sequence (O15530 1-556): T1 sequence (O15530 1-556)
Description: as §2

[4] = biological target: T4, PDK1 (Homo sapiens, UniProt O15530); assay: PDK1 activity assay with T308tide and [γ32P]ATP; format: biochemical; conditions: isolated catalytic domain
T4 construct: made in house; host or cells: HEK293 (GST fusion) or Sf9 insect cells (His form)
T4 sequence (O15530 1-359): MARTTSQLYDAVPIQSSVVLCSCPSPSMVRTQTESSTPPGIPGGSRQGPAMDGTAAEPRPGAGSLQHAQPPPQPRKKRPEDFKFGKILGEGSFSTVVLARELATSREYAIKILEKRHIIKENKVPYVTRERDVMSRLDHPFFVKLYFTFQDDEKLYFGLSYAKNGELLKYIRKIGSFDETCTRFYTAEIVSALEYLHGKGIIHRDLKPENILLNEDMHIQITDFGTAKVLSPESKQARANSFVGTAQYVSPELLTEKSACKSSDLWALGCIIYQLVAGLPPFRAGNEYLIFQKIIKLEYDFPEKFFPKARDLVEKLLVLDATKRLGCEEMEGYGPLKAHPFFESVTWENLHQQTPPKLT
Description: The PDK1 activity assay using T308tide as a substrate was performed essentially as previously described ([18], [28], [54]). In brief, the assay was performed in a 20 μl format containing 50 mM Tris pH 7.5, 0.05 mg/ml BSA, 0.1% ß-mercaptoethanol, 10 mM MgCl2, 100 μM [γ^32P]ATP (5-50 cpm/pmol), 0.003% Brij, 150-500 ng PDK1, and T308tide (0.3 mM) at room temperature. The assay was performed in 96 well plated and stopped by the addition of 5 μl of 0.1 % phosphoric acid. 4 μl aliquots were spotted on p81 phosphocellulose papers (Whatmann) using ep motion 5070 (Eppendorf). The phosphocellulose papers were washed in 0.01% phosphoric acid, dried, and exposed using PhosphoImager (FLA-9000 Starion). Data were analyzed with ImageQuant software (Fujifilm). Activity measurements were performed in technical duplicates or triplicates with less than 10% difference between replicates. Experiments were repeated at least twice. The activity measurements of PDK1 towards GS-022 and GS-023 were performed similarly, with the GS-peptides replacing T308tide at the indicated concentrations. GS-022 and GS-023 have features consistent with the loose characteristics disclosed for the peptide Ser/Thr 07, ((R/K)1-3(X)0-2 (S/T) (X)0-2(R/K)1-3, where X is any residue) used by the commercial “PDK1 Direct” assay.

[5] = biological target: T5, His-PDK1_1-556 and GST-PDK1_360-556 (Homo sapiens, UniProt O15530); assay: AlphaScreen PDK1 dimerization assay His-PDK1_1-556 / GST-PDK1_360-556; format: binding; conditions: Prestwick library screen hits; read-out: IC50, inhibition of PDK1 dimerization
T5 construct: made in house; host or cells: Sf9 insect cells (His-PDK1_1-556); HEK293 cells (GST-PDK1_360-556)
T5 sequence (O15530 1-556): T1 sequence (O15530 1-556)
Description: as §1
The conditions for each AlphaScreen assay were identified in cross-titration experiments for each interaction to choose the ideal pair of concentrations within the linear range of the interactions. […] His-PDK1 and GST-fusion protein in the presence or absence of the different compounds were incubated in the dark for 60 min at room temperature and the emission of light from the acceptor beads was measured in an EnVision reader (Perkin Elmer) or Spark plate reader (Tecan). […]

[6] = test system: PDK1; parameters: method as in PMID 20051961; conditions: read-out: IC50, in vitro inhibitor of PDK1; cited from earlier work
[7] = biological target: the molecule itself; assay: STORM-based single-molecule fluorescence intensity; TMR-Star-labelled SNAP-PDK1 diluted and adsorbed on PDDA-coated slides; 50 mM Tris-HCl pH 7.4, 100 mM NaCl, 1 mM DTT; dimers told from monomers by spot intensity
[8] = biological target: T6, GST-PDK1_(1-556) (UniProt O15530 1-556); assay: AlphaScreen or HTRF; GST-PDK1_(1-556) (150 nM) and biotin-GS-022; anti-GST coated acceptor beads and streptavidin-coated donor beads; standard buffer; with or without HYG8; conditions: both partners purified
T6 construct: source: HEK293 cells, transient transfection of pEBG2T plasmid, purified, dialyzed to remove GSH
T6 sequence (looked up): T1 sequence (O15530 1-556)

[9] = biological target: T7, His-PDK1_(1-556) (UniProt O15530 1-556); assay: AlphaScreen or HTRF; His-PDK1_(1-556) and GST-PDK1_(360-556); nickel chelate-coated acceptor beads and GSH-coated donor beads; standard buffer 50 mM Tris-HCl pH 7.4, 100 mM NaCl, 2 mM DTT, 0.01% Tween-20, 0.1% BSA; 60 min at room temperature; conditions: both partners purified
T7 construct: also called full-length PDK1; PDK1 FL; source: Sf9 insect cells (Bac-to-Bac baculovirus), purified (Ni-NTA, gel filtration); not shown: His, N-terminal, kept; myc, N-terminal, kept
T7 sequence (looked up): T1 sequence (O15530 1-556)

effect on PDK1-PIFtide interaction [1]: inhibited | effect on thermal stability of PDK1_50-359 (catalytic domain) [2]: less stabilization | ΔTm at 50 µM ([3]; 50 μM, buffer without NaCl): 2.2 °C | effect on temperature stability of the PDK1-HYG8 complex ([3]; in presence of HYG8): did not further enhance | effect on activity of the isolated catalytic domain of PDK1 toward T308tide [4]: modestly increased | IC50 [5]: 32 µM
Molecule: CCCCC(=O)N(Cc1ccc(-c2ccccc2-c2nnn[nH]2)cc1)[C@H](C(=O)O)C(C)C [valsartan, reference compound]

Molecule: O=P(O)(O)OC1C(OCc2ccccc2)C(OP(=O)(O)O)C(OP(=O)(O)O)C(OP(=O)(O)O)C1OP(=O)(O)O (stereo not shown) [2-O-benzyl-IP5]
IC50 [6]: 0.026 µM

B1: SNAP-PDK1_(50-556) (enzyme, UniProt O15530 50-556, looked up)
chain: AMDGTAAEPRPGAGSLQHAQPPPQPRKKRPEDFKFGKILGEGSFSTVVLARELATSREYAIKILEKRHIIKENKVPYVTRERDVMSRLDHPFFVKLYFTFQDDEKLYFGLSYAKNGELLKYIRKIGSFDETCTRFYTAEIVSALEYLHGKGIIHRDLKPENILLNEDMHIQITDFGTAKVLSPESKQARANSFVGTAQYVSPELLTEKSACKSSDLWALGCIIYQLVAGLPPFRAGNEYLIFQKIIKLEYDFPEKFFPKARDLVEKLLVLDATKRLGCEEMEGYGPLKAHPFFESVTWENLHQQTPPKLTAYLPAMSEDDEDCYGNYDNLLSQFGCMQVSSSSSSHSLSASDTGLPQRSGSNIEQYIHDLDSNSFELDLQFSEDEKRLLLEKQAGGNPWHQFVENNLILKMGPVDKRKGLFARRRQLLLTEGPHLYYVDPVNKVLKGEIPWSQELRPEAKNFKTFFVHTPNRTYYLMDPSGNAHKWCRKIQEVWRQRYQSHPDAAVQ
modifications: SNAP-Cell TMR-Star label on the SNAP-tag
notes: also called TMR-SNAP-PDK1
binding result [7]: binds

binding result [8]: binds
B2: biotin-GS-022 (peptide)
peptide: Biotin-RRRQFSLRRKAK
notes: synthetic peptide substrate of PDK1; source: synthetic peptide (Pepscan)

binding result [9]: binds
B3: GST-PDK1_(360-556) (domain or fragment, UniProt O15530 360-556, looked up)
chain: AYLPAMSEDDEDCYGNYDNLLSQFGCMQVSSSSSSHSLSASDTGLPQRSGSNIEQYIHDLDSNSFELDLQFSEDEKRLLLEKQAGGNPWHQFVENNLILKMGPVDKRKGLFARRRQLLLTEGPHLYYVDPVNKVLKGEIPWSQELRPEAKNFKTFFVHTPNRTYYLMDPSGNAHKWCRKIQEVWRQRYQSHPDAAVQ
notes: Cloned into the BamHI-KpnI sites of pEBG2T; also called GST-PDK1-Linker-PH; GST-linker-PH domain; source: HEK293 cells, transient transfection of pEBG2T plasmid, purified, dialyzed to remove GSH

From article PMC7614687, “Modulation of the substrate specificity of the kinase PDK1 by distinct conformations of the full-length protein*” (Science signaling, 2023)
